In US20100197789A1, “ANTI-OBESITY AGENT AND USE THEREOF” (National University Corporation Nagoya University, priority 2006, published 2010):

How the values were obtained:
Assay type in all cases: in vivo, mouse
db/db mice = assay: Food intake amount and body weight, 5 week-continuous oral administration in drinking water, db/db mice; details: for body weight increase / food intake amount: oral, 5 weeks
Description: 5 week-old male C57BL/KsJ-db/db mice (db/db mice: body weight 19 to 25 g, Japan SLC, Inc.) were purchased and individually fed in tip cages. For the db/db mice, normal pellet diet (CE-2) was administered under free water intake and free food intake. A body weight and a food intake amount over 24 hours were measured every day from the start of feeding. On day 3 after the start of feeding, blood was taken from an orbit after 6 hour-fasting and a blood glucose level and a blood insulin concentration were measured. The db/db mice were divided into three groups (10 mice per each group) so that a body weight, a 24 hour-food intake amount, a blood glucose level, and a blood insulin concentration were equal, and defined to be a control group, a low concentration baclofen treated group, and a high concentration baclofen treated group. After division into the groups, from day 5 after the start of feeding, (±)-baclofen was dissolved in drinking water and 5 week-continuous oral administration to the baclofen treated groups was started. (±)-baclofen was dissolved in drinking water at a concentration of 1.1 mg/dl in the low concentration treated group and at a concentration of 2.7 mg/dl in the high concentration treated group. A food intake amount and a body weight were measured over time during the period of 5 week-administration of (±)-baclofen, blood was taken after the end of the 5-week administration, and the db/db mice were sacrificed by cervical luxation. Brains, epididymal white adipose tissues, subcutaneous white adipose tissues and brown adipose tissues were surgically removed. The brains and brown adipose tissues were frozen in dry ice and liquid nitrogen immediately after the removal and then preserved at −80° C. The epididymal white adipose tissues and subcutaneous white adipose tissues were measured in weights, and then fixed in 4% formaldehyde and preserved at 4° C.
5 week-old male C57BL/KsJ-db/db mice (db/db mice: body weight 19 to 25 g, Japan SLC, Inc.) were purchased and individually fed in tip cages. For the db/db mice, normal pellet diet (CE-2) was administered under free water intake and free food intake. A body weight and a food intake amount over 24 hours were measured everyday from the start of feeding. On day 3 after the start of feeding, blood was taken from an orbit after 6 hour-fasting and a blood glucose level and a blood insulin concentration were measured. […] After division into the groups, from day 5 after the start of feeding, R-baclofen and S-baclofen were dissolved in drinking water and 5 week-continuous oral administration was started. […] A food intake amount and a body weight were measured over time, and a rectal temperature was measured 5 weeks after the start of the administration. Blood was taken after the 5-week administration of baclofen, and the db/db mice were sacrificed by cervical luxation.
5 week-old male C57BL/KsJ-db/db mice (db/db mice: body weight 19 to 25 g, Japan SLC, Inc.) were purchased and individually fed in tip cages. Normal pellet diet (CE-2) was administered to the db/db mice under free water intake and free food intake. A body weight and a food intake amount over 24 hours were measured every day from the start of feeding. On day 3 after the start of feeding, blood was taken from an orbit after 6 hour-fasting, and a blood glucose level and a blood insulin concentration were measured. The db/db mice were divided into five groups (10 mice per each group) so that a body weight, a 24 hour-food intake amount, a blood glucose level, and a blood insulin concentration were equal, and defined to be a control group and baclofen treated groups. (±)-baclofen was dissolved in drinking water at respective concentrations of 4×10^−6 M, 10×10^−6 M, 40×10^−6 M, and 100×10^−6 M, and continuously orally administered to the baclofen treated groups for 5 weeks. A food intake amount, a body weight and a water-drinking amount were measured over time during the period of 5 week-administration of (±)-baclofen. […]

db/^+m mice = assay: Rectal temperature, db/+m mice; details: (±)-baclofen 2.7 mg/dl in drinking water for 5 weeks
Description: 5 week-old male C57BL/KsJ-db/^+m mice (db/^+m mice: body weight 19 to 23 g, Japan SLC, Inc.) were purchased and individually fed in tip cages. To the db/^+m mice, normal pellet diet (CE-2) was administered under free water intake and free food intake. A body weight and a food intake amount over 24 hours were measured every day from the start of feeding. On day 3 after the start of feeding, blood was taken from an orbit after 6 hour-fasting and a blood glucose level and a blood insulin concentration were measured. The db/^+m mice were divided into two groups (10 mice per each group) so that a body weight, a 24 hour-food intake amount, a blood glucose level, and a blood insulin concentration were equal, and defined to be a control group and a baclofen treated group. […] A food intake amount and a body weight of the db/^+m mice were measured over time, and a rectal temperature was measured 5 weeks after the start of the administration. […]
R-baclofen and S-baclofen were administered to db/db/mice and (±)-baclofen was administered to db/^+m mice respectively for 5 weeks, and rectal temperatures were then continuously measured for 3 days at 20 o'clock immediately before the dark period when feed intake was started in the mice. […] That is, the rectal temperatures were measured by using a digital thermistor (manufactured by NATSUME SEISAKUSHO CO., LTD.).

NPY mRNA = assay: In situ hybridization, NPY mRNA in hypothalamic arcuate nucleus, DIO mice; details: (±)-baclofen oral 5 weeks
Description: A hypothalamic section with a thickness of 12 μm was prepared from the brain preserved at −80° C. by using a cryostat and stuck to a MAS coat slide and then in situ hybridization was performed. For a label of NPY mRNA and POMC mRNA probes, ^35S was used. The hypothalamic section was pretreated by using triethanolamine, ethanol and the like, and then 12 hour-hybridization was performed at 55° C. After the hybridization, the hypothalamic section was treated by washing with SSC, RNase, etc. After development to a film, the mRNA expression strength was assayed by using the NIH image.
(±)-baclofen was orally administered to DIO mice for 5 weeks according to the above method, and then the DIO mice were sacrificed. A brain was surgically removed, and changes in expression amounts of NPY mRNA and POMC mRNA in the hypothalamic arcuate nucleus were examined by using an in situ hybridization method.

[1] = (±)-baclofen 1.1 mg/dl (low) and 2.7 mg/dl (high) in drinking water, vs control
[2] = (±)-baclofen 1.1 and 2.7 mg/dl in drinking water, continued until end of experiment
[3] = (±)-baclofen 4×10^−6 M in drinking water (roughly 0.2 mg/kg/day)
[4] = (±)-baclofen 10×10^−6 M in drinking water (roughly 0.5 mg/kg/day)
[5] = (±)-baclofen 40×10^−6 M in drinking water (roughly 2 mg/kg/day)
[6] = (±)-baclofen 100×10^−6 M in drinking water (roughly 5 mg/kg/day)

`NCC(CC(=O)O)c1ccc(Cl)cc1` (racemic) [(±)-baclofen, (RS)-4-amino-3-(4-chlorophenyl)butanoic acid] was tested, and the body weight increase (db/db mice; [1]) was “significant body weight increase suppression”, the food intake amount (db/db mice; [1]) was “significantly suppressed” and the “time after start of administration from which body weight increase suppression was significant” value (db/db mice; [2]) was 1 week. The “time after start of administration from which food intake suppression was significant” value (db/db mice; [2]) was 1 week, the “time after start of administration from which body weight increase suppression was significant” value (db/db mice; [3]) was 4 weeks and the “time after start of administration from which food intake suppression was significant” value (db/db mice; [3]) was 4 weeks. For the same compound, the body weight increase (db/db mice; [3]) was “Significant suppression”, the food intake amount (db/db mice; [3]) was “Significant suppression” and the “time after start of administration from which body weight increase suppression was significant” value (db/db mice; [4]) was 2 weeks. The “time after start of administration from which food intake suppression was significant” value (db/db mice; [4]) was 2 weeks, the body weight increase (db/db mice; [4]) was “Significant suppression” and the food intake amount (db/db mice; [4]) was “Significant suppression”. The “time after start of administration from which body weight increase suppression was significant” value (db/db mice; [5]) was 1 week, the “time after start of administration from which food intake suppression was significant” value (db/db mice; [5]) was 1 week and the body weight increase (db/db mice; [5]) was “significantly suppressed”. For the same compound, the food intake amount (db/db mice; [5]) was “significantly suppressed”, the “time after start of administration from which body weight increase suppression was significant” value (db/db mice; [6]) was 1 week and the “time after start of administration from which food intake suppression was significant” value (db/db mice; [6]) was 1 week. For the same compound, the body weight increase (db/db mice; [6]) was “significantly suppressed”, the food intake amount (db/db mice; [6]) was “significantly suppressed” and the rectal temperature (db/^+m mice) was “did not give a significant effect”. For the same compound, the “expression of NPY mRNA in the hypothalamic arcuate nucleus” value (NPY mRNA) was “significantly suppressed”.
